Data: PubChem BioAssay AID1745844 (Carcinogenic Potency Database (CPDB), 2022)
Several values for one entry are separate records, joined by “and”; a condition that tells them apart may be missing. Equal entries are not always repeated. Activity calls are given as the source filed them. No rule for the calls is given here.

Tested on: rodent lifetime carcinogenesis bioassay, tumor incidence TD50
Experiment: carcinogenic potency in animals, long-term in vivo studies, CPDB compilation (AID 1745844)
[1] = mouse, strain Charles River CD1, females, in drinking water, site: all sites, lesion: all vascular tumors, dosed 52 weeks, study length 52 weeks
[2] = mouse, strain Charles River CD1, males, in drinking water, site: all sites, lesion: all vascular tumors, dosed 52 weeks, study length 52 weeks
[3] = mouse, strain Charles River CD1, males, in drinking water, site: liver, lesion: hepatocellular carcinoma, dosed 52 weeks, study length 52 weeks
[4] = mouse, strain Charles River CD1, males, in drinking water, site: liver, lesion: several types, types named in the paper, dosed 52 weeks, study length 52 weeks
[5] = mouse, strain Charles River CD1, males, in drinking water, site: lung, lesion: alveolar/bronchiolar adenoma, dosed 52 weeks, study length 52 weeks

For `CN(C)N`, the TD50 (hamster, strain Syrian Golden, females, in drinking water, site: blood vessels, lesion: several types, types named in the paper, dosed 79 weeks, study length 79 weeks) was 620 mg/kg/day, the TD50 (hamster, strain Syrian Golden, females, in drinking water, site: cecum, lesion: several types, types named in the paper, dosed 79 weeks, study length 79 weeks) was 104 mg/kg/day and the TD50 (hamster, strain Syrian Golden, females, in drinking water, site: liver, lesion: several types, types named in the paper, dosed 79 weeks, study length 79 weeks) was 620 mg/kg/day. For the same compound, the TD50 (hamster, strain Syrian Golden, males, in drinking water, site: blood vessels, lesion: several types, types named in the paper, dosed 91 weeks, study length 91 weeks) was 183 mg/kg/day, the TD50 (hamster, strain Syrian Golden, males, in drinking water, site: cecum, lesion: adenocarcinoma, dosed 91 weeks, study length 91 weeks) was 322 mg/kg/day and the TD50 (hamster, strain Syrian Golden, males, in drinking water, site: cecum, lesion: polypoid adenoma, dosed 91 weeks, study length 91 weeks) was 372 mg/kg/day. It also gave a TD50 (hamster, strain Syrian Golden, males, in drinking water, site: cecum, lesion: several types, types named in the paper, dosed 91 weeks, study length 91 weeks) of 155 mg/kg/day, a TD50 (hamster, strain Syrian Golden, males, in drinking water, site: liver, lesion: angioma, dosed 91 weeks, study length 91 weeks) of 975 mg/kg/day and a TD50 (hamster, strain Syrian Golden, males, in drinking water, site: liver, lesion: angiosarcoma, dosed 91 weeks, study length 91 weeks) of 242 mg/kg/day. For the same compound, the TD50 (hamster, strain Syrian Golden, males, in drinking water, site: liver, lesion: several types, types named in the paper, dosed 91 weeks, study length 91 weeks) was 183 mg/kg/day, the TD50 [1] was 26 mg/kg/day and the carcinogen call [1] was “negative (inactive)”. The TD50 (mouse, strain Charles River CD1, females, in drinking water, site: all sites, lesion: all vascular tumors, dosed 104 weeks, study length 104 weeks) was 11.1 mg/kg/day, the TD50 (mouse, strain Charles River CD1, females, in drinking water, site: all sites, lesion: hemangioma, dosed 52 weeks, study length 52 weeks) was 39.7 mg/kg/day and the TD50 (mouse, strain Charles River CD1, females, in drinking water, site: all sites, lesion: hemangiosarcoma, dosed 52 weeks, study length 52 weeks) was 80.8 mg/kg/day. The TD50 (mouse, strain Charles River CD1, females, in drinking water, site: liver, lesion: all vascular tumors, dosed 52 weeks, study length 52 weeks) was 26 mg/kg/day, the TD50 (mouse, strain Charles River CD1, females, in drinking water, site: liver, lesion: hemangioma, dosed 52 weeks, study length 52 weeks) was 39.7 mg/kg/day and the TD50 (mouse, strain Charles River CD1, females, in drinking water, site: liver, lesion: hemangiosarcoma, dosed 52 weeks, study length 52 weeks) was 80.8 mg/kg/day. The TD50 (mouse, strain Charles River CD1, females, in drinking water, site: liver, lesion: hepatocellular adenoma, dosed 104 weeks, study length 104 weeks) was 98.7 mg/kg/day and 63.6 mg/kg/day, the TD50 (mouse, strain Charles River CD1, females, in drinking water, site: liver, lesion: hepatocellular carcinoma, dosed 104 weeks, study length 104 weeks) was 340 mg/kg/day and the carcinogen call (mouse, strain Charles River CD1, females, in drinking water, site: liver, lesion: one or several types, types not named, dosed 52 weeks, study length 52 weeks) was “negative (inactive)”. For the same compound, the TD50 (mouse, strain Charles River CD1, females, in drinking water, site: liver, lesion: several types, types named in the paper, dosed 104 weeks, study length 104 weeks) was 74.7 mg/kg/day, the TD50 (mouse, strain Charles River CD1, females, in drinking water, site: lung, lesion: alveolar/bronchiolar carcinoma, dosed 52 weeks, study length 52 weeks) was 81.5 mg/kg/day and the TD50 (mouse, strain Charles River CD1, females, in drinking water, site: lung, lesion: several types, types named in the paper, dosed 52 weeks, study length 52 weeks) was 3.68 mg/kg/day. The TD50 [2] was 12.6 mg/kg/day, the carcinogen call [2] was “negative (inactive)” and the TD50 (mouse, strain Charles River CD1, males, in drinking water, site: all sites, lesion: all vascular tumors, dosed 104 weeks, study length 104 weeks) was 6.13 mg/kg/day. For the same compound, the TD50 (mouse, strain Charles River CD1, males, in drinking water, site: all sites, lesion: hemangioma, dosed 52 weeks, study length 52 weeks) was 33.4 mg/kg/day, the TD50 (mouse, strain Charles River CD1, males, in drinking water, site: all sites, lesion: hemangioma, dosed 104 weeks, study length 104 weeks) was 339 mg/kg/day and the TD50 (mouse, strain Charles River CD1, males, in drinking water, site: all sites, lesion: hemangiosarcoma, dosed 52 weeks, study length 52 weeks) was 21.7 mg/kg/day. It also gave a TD50 (mouse, strain Charles River CD1, males, in drinking water, site: liver, lesion: all vascular tumors, dosed 52 weeks, study length 52 weeks) of 12.6 mg/kg/day, a TD50 (mouse, strain Charles River CD1, males, in drinking water, site: liver, lesion: all vascular tumors, dosed 104 weeks, study length 104 weeks) of 6.47 mg/kg/day and a TD50 (mouse, strain Charles River CD1, males, in drinking water, site: liver, lesion: hemangioma, dosed 52 weeks, study length 52 weeks) of 33.4 mg/kg/day. For the same compound, the TD50 (mouse, strain Charles River CD1, males, in drinking water, site: liver, lesion: hemangioma, dosed 104 weeks, study length 104 weeks) was 339 mg/kg/day, the TD50 (mouse, strain Charles River CD1, males, in drinking water, site: liver, lesion: hemangiosarcoma, dosed 52 weeks, study length 52 weeks) was 21.7 mg/kg/day and the TD50 (mouse, strain Charles River CD1, males, in drinking water, site: liver, lesion: hepatocellular adenoma, dosed 52 weeks, study length 52 weeks) was 26.7 mg/kg/day (inactive). For the same compound, the TD50 [3] was 10.8 mg/kg/day, the carcinogen call [3] was “negative (inactive)” and the TD50 (mouse, strain Charles River CD1, males, in drinking water, site: liver, lesion: hepatocellular carcinoma, dosed 104 weeks, study length 104 weeks) was 11.9 mg/kg/day and 33.4 mg/kg/day. For the same compound, the TD50 [4] was 6.28e+06 mg/kg/day, the carcinogen call [4] was “negative (inactive)” and the TD50 [5] was 5.18 mg/kg/day. For the same compound, the carcinogen call [5] was “negative (inactive)”, the TD50 (mouse, strain Charles River CD1, males, in drinking water, site: lung, lesion: alveolar/bronchiolar carcinoma, dosed 52 weeks, study length 52 weeks) was 67.4 mg/kg/day and the TD50 (mouse, strain Charles River CD1, males, in drinking water, site: lung, lesion: alveolar/bronchiolar carcinoma, dosed 104 weeks, study length 104 weeks) was 89 mg/kg/day and 33.4 mg/kg/day. The TD50 (mouse, strain Charles River CD1, males, in drinking water, site: lung, lesion: several types, types named in the paper, dosed 52 weeks, study length 52 weeks) was 4.33 mg/kg/day, the TD50 (mouse, strain Charles River CD1, males, in drinking water, site: lung, lesion: several types, types named in the paper, dosed 104 weeks, study length 104 weeks) was 39.6 mg/kg/day and 26.4 mg/kg/day and the TD50 (mouse, strain Swiss albino, females, in drinking water, site: blood vessels, lesion: angiosarcoma, dosed 72 weeks, study length 72 weeks) was 3.57 mg/kg/day. It also gave a TD50 (mouse, strain Swiss albino, females, in drinking water, site: blood vessels, lesion: several types, types named in the paper, dosed 72 weeks, study length 72 weeks) of 3.65 mg/kg/day, a TD50 (mouse, strain Swiss albino, females, in drinking water, site: kidney, lesion: adenoma, dosed 72 weeks, study length 72 weeks) of 148 mg/kg/day and a TD50 (mouse, strain Swiss albino, females, in drinking water, site: lung, lesion: adenocarcinoma, dosed 72 weeks, study length 72 weeks) of 51.6 mg/kg/day. It also gave a TD50 (mouse, strain Swiss albino, females, in drinking water, site: lung, lesion: adenoma, dosed 72 weeks, study length 72 weeks) of 5.58 mg/kg/day, a TD50 (mouse, strain Swiss albino, females, in drinking water, site: lung, lesion: several types, types named in the paper, dosed 72 weeks, study length 72 weeks) of 5.69 mg/kg/day and a TD50 (mouse, strain Swiss albino, males, in drinking water, site: blood vessels, lesion: angiosarcoma, dosed 62 weeks, study length 62 weeks) of 2.09 mg/kg/day. For the same compound, the TD50 (mouse, strain Swiss albino, males, in drinking water, site: blood vessels, lesion: several types, types named in the paper, dosed 62 weeks, study length 62 weeks) was 2.11 mg/kg/day, the TD50 (mouse, strain Swiss albino, males, in drinking water, site: kidney, lesion: adenoma, dosed 62 weeks, study length 62 weeks) was 19.5 mg/kg/day and the TD50 (mouse, strain Swiss albino, males, in drinking water, site: liver, lesion: hepatoma, dosed 62 weeks, study length 62 weeks) was 30.4 mg/kg/day. It also gave a TD50 (mouse, strain Swiss albino, males, in drinking water, site: lung, lesion: adenocarcinoma, dosed 62 weeks, study length 62 weeks) of 46.6 mg/kg/day, a TD50 (mouse, strain Swiss albino, males, in drinking water, site: lung, lesion: adenoma, dosed 62 weeks, study length 62 weeks) of 2.62 mg/kg/day and a TD50 (mouse, strain Swiss albino, males, in drinking water, site: lung, lesion: several types, types named in the paper, dosed 62 weeks, study length 62 weeks) of 2.62 mg/kg/day. The TD50 (mouse, strain Swiss, females, by gavage, site: lung, lesion: one or several types, types not named, dosed 40 weeks, study length 55 weeks) was 16 mg/kg/day, the carcinogen call (rat, strain Fischer 344, females, in drinking water, site: liver, lesion: hemangioma, dosed 52 weeks, study length 52 weeks) was “negative (inactive)” and the TD50 (rat, strain Fischer 344, females, in drinking water, site: liver, lesion: hepatocellular adenoma, dosed 104 weeks, study length 104 weeks) was 184 mg/kg/day (inactive). For the same compound, the TD50 (rat, strain Fischer 344, females, in drinking water, site: liver, lesion: hepatocellular carcinoma, dosed 104 weeks, study length 104 weeks) was 40.7 mg/kg/day (inactive), the TD50 (rat, strain Fischer 344, females, in drinking water, site: liver, lesion: several types, types named in the paper, dosed 104 weeks, study length 104 weeks) was 30.9 mg/kg/day (inactive) and the TD50 (rat, strain Fischer 344, females, in drinking water, site: pituitary gland, lesion: adenoma, dosed 104 weeks, study length 104 weeks) was 14.8 mg/kg/day (inactive). The TD50 (rat, strain Fischer 344, males, in drinking water, site: liver, lesion: hepatocellular adenoma, dosed 104 weeks, study length 104 weeks) was 205 mg/kg/day (inactive), the TD50 (rat, strain Fischer 344, males, in drinking water, site: liver, lesion: hepatocellular carcinoma, dosed 104 weeks, study length 104 weeks) was 650 mg/kg/day (inactive) and the carcinogen call (rat, strain Fischer 344, males, in drinking water, site: liver, lesion: one or several types, types not named, dosed 52 weeks, study length 52 weeks) was “negative (inactive)”. The TD50 (rat, strain Fischer 344, males, in drinking water, site: liver, lesion: several types, types named in the paper, dosed 104 weeks, study length 104 weeks) was 155 mg/kg/day (inactive).
`CC(C)n1c(/C=C/[C@H](O)C[C@H](O)CC(=O)O)c(-c2ccc(F)cc2)c2ccccc21` gave a TD50 (rat, strain Charles River CD (Sprague-Dawley), females, by gavage, site: liver, lesion: hepatocellular adenoma, dosed 104 weeks, study length 104 weeks) of 2780 mg/kg/day, a TD50 (rat, strain Charles River CD (Sprague-Dawley), females, by gavage, site: liver, lesion: hepatocellular carcinoma, dosed 104 weeks, study length 104 weeks) of 916 mg/kg/day and a TD50 (rat, strain Charles River CD (Sprague-Dawley), females, by gavage, site: stomach, lesion: papilloma, dosed 104 weeks, study length 104 weeks) of 916 mg/kg/day. It also gave a TD50 (rat, strain Charles River CD (Sprague-Dawley), males, by gavage, site: stomach, lesion: papilloma, dosed 104 weeks, study length 104 weeks) of 610 mg/kg/day, a TD50 (rat, strain Charles River CD (Sprague-Dawley), males, by gavage, site: stomach, lesion: squamous-cell carcinoma, dosed 104 weeks, study length 104 weeks) of 919 mg/kg/day and a TD50 (rat, strain Charles River CD (Sprague-Dawley), males, by gavage, site: thyroid gland, lesion: follicular adenocarcinoma, dosed 104 weeks, study length 104 weeks) of 258 mg/kg/day. The TD50 (rat, strain Charles River CD (Sprague-Dawley), males, by gavage, site: thyroid gland, lesion: follicular-cell adenoma, dosed 104 weeks, study length 104 weeks) was 125 mg/kg/day.
With `CCN(CC)C(C)=O` the TD50 (rat, strain Wistar, males, by gavage, site: any site (literature study), lesion: several types, types named in the paper, dosed 73 weeks, study length 73 weeks) was 11.8 mg/kg/day and the TD50 (rat, strain Wistar, males, by gavage, site: kidney, lesion: papillary transitional-cell carcinoma, dosed 73 weeks, study length 73 weeks) was 8.85 mg/kg/day.
